Experiments:
[1] = system: rabbits; assay: McGinty test (progestational/agonist activity, McPhail score); format: in vivo; set-up: McPhail Index, McGinty Assay (Agonist): scale not given here; settings: rabbit; for McPhail Index, McGinty Assay (Agonist): test compound alone
Source text: (§1) Results were scored according to McPhail (McPhail, J. Physiol., 83: 146 (1934)). These are standard procedures well-known to those skilled in the art. The results of these assays are shown in Tables 2 (agonist activity) and 3 (antagonist activity). […] Some compounds were extremely potent in this regard.

[2] = system: rabbits; assay: Anti-McGinty test (antiprogestational/antagonist activity, test compound plus progesterone, McPhail score); format: in vivo; set-up: McPhail Index, Anti-McGinty Assay (Antagonist): scale not given here; settings: rabbit; for McPhail Index, Anti-McGinty Assay (Antagonist): test compound plus progesterone; for Blocking the action of progesterone in the anti-McGinty assay: dose of only 0.3 μg
Source text: as §1

[3] = biological target: T1, human progesterone hormone receptor (Homo sapiens, UniProt P06401); assay: Receptor binding, inhibition of [3H]-R5020 binding in T-47D cytosol; settings: cytosol from human T-47D breast cells, 0.4 nM [3H]-R5020, 4 hours at 4° C.; read-out: Relative Binding Affinity hPR IC50
T1 construct: The receptor was obtained in cytosol from human T-47D breast cells and [^3H]-R5020 was used as the radioligand; endogenous in cells; host or cells: human T-47D breast cells (cytosol, 34,000 x g supernatant)
T1 sequence (P06401 1-933): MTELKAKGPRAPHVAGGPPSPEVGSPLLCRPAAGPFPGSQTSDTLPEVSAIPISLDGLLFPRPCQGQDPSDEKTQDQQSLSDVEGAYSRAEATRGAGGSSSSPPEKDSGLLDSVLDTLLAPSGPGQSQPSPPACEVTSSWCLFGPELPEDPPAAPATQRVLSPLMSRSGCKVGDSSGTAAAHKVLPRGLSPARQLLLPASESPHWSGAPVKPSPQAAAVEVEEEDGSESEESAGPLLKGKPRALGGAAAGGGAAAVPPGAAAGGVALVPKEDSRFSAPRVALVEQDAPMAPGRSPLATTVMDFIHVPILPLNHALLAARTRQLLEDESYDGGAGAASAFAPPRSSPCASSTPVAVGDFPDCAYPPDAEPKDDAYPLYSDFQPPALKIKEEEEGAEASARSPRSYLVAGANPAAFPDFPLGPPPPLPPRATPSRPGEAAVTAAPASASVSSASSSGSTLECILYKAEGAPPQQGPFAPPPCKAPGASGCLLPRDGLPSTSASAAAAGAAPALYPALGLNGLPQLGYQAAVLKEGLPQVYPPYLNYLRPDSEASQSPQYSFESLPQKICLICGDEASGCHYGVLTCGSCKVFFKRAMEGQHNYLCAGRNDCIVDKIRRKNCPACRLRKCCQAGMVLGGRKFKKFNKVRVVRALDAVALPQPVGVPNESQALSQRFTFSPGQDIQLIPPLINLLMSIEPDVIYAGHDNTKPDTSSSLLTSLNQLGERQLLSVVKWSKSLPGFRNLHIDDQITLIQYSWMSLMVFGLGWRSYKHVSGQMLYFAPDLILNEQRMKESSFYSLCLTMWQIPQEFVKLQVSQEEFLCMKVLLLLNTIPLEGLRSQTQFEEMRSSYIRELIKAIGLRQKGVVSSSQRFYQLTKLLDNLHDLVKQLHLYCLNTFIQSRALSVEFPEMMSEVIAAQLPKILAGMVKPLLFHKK
Procedure: The receptor was obtained in cytosol from human T-47D breast cells and [^3H]-R5020 was used as the radioligand. T47D cells (1 billion/ml) were homogenized in TEDG buffer (10 mM Tris, 1.5 mM EDTA, 1 mM dithiothreitol, 1 mM sodium molybdate, and 10% glycerol) using a Dounce pestle A, and the homogenate was centrifuged at 34,000×g for 1 hour. The supernatant was stored at −80° C. An aliquot of receptor preparation was combined with test compound, 0.4 nM [^3H]-R5020, and TEDG buffer to a final volume of 150 μL and incubated for 4 hours at 4° C. in microtiter plates. At the end of incubation 40 μL 40% polyethylene glycol and 15 μL 1% human gamma globulin was added to the incubate and the contents of each well were harvested onto double thick B filter mats (Wallac LKB) using a TomTec harvester. A film of Meltilux scintillant wax was applied to the dried filter mats and the mats were counted in a scintillation counter to determine inhibition of [^3H]-R5020 binding. Data are expressed as IC50 values, i.e., the concentration of compound that inhibits radioligand binding by 50%.

[4] = system: immature female rabbits; assay: Anti-estrogenic activity, uterine weight in estradiol-treated immature female rabbits; format: in vivo, rabbit; settings: ± S.E., no estradiol 216.7±37.2 mg

In the case of `CC#CC1(NC(C)=O)CCC2C3CCC4=CC(=O)CCC4=C3C(c3ccc(N(C)C)cc3)CC21C` (stereo not drawn) [17β-(N-Acetamido)-11β-[4-(N,N-dimethylamino)phenyl]-17α-(1-propynyl)estra-4,9-dien-3-one], the “McPhail Index, McGinty Assay (Agonist)” value ([1]; dose 0.3 micrograms) is reported as 0 ± 0, the “McPhail Index, McGinty Assay (Agonist)” value ([1]; dose 3 micrograms) is reported as 0 ± 0 and the “McPhail Index, McGinty Assay (Agonist)” value ([1]; dose 30 micrograms) is reported as 0 ± 0. The “McPhail Index, Anti-McGinty Assay (Antagonist)” value (shortened to “McPhail Index … (Antagonist)”) ([2]; dose 0.3 micrograms) was 1.8 ± 0.3, the “McPhail Index … (Antagonist)” value ([2]; dose 3 micrograms) was 0.1 ± 0.1 and the “McPhail Index … (Antagonist)” value ([2]; dose 30 micrograms) was 0 ± 0. It also gave an IC50 [3] of 1.3 nM.
`CC#C[C@]1(NO)CC[C@H]2[C@@H]3CCC4=CC(=O)CCC4=C3[C@@H](c3ccc(N(C)C)cc3)C[C@@]21C` [11β-[4-(N,N-Dimethylamino)phenyl]-17β-(N-hydroxylamino)-17α-(1-propynyl)estra-4,9-dien-3-one] was tested, and the “Progestational (agonist) activity in the McGinty assay” value ([1]; at high doses) was “some progestational (agonist) activity”, the “McPhail Index, McGinty Assay (Agonist)” value ([1]; dose 0.3 micrograms) was 0 ± 0 and the “McPhail Index, McGinty Assay (Agonist)” value ([1]; dose 3 micrograms) was 0 ± 0. For the same compound, the “McPhail Index, McGinty Assay (Agonist)” value ([1]; dose 30 micrograms) was 0.7 ± 0.0, the “Progestational (agonist) activity in the anti-McGinty assay” value ([2]; at the highest dose) was “some progestational (agonist) activity” and the “McPhail Index … (Antagonist)” value ([2]; dose 0.3 micrograms) was 0 ± 0. The “McPhail Index … (Antagonist)” value ([2]; dose 3 micrograms) was 0 ± 0, the “McPhail Index … (Antagonist)” value ([2]; dose 30 micrograms) was 2.5 ± 0.4 and the “Blocking the action of progesterone in the anti-McGinty assay” value [2] was “completely effective in blocking the action of progesterone”. The IC50 [3] was 14.3 nM.
`CC#C[C@]1(NC=O)CC[C@H]2[C@@H]3CCC4=CC(=O)CCC4=C3[C@@H](c3ccc(N(C)C)cc3)C[C@@]21C` [11β-[4-(N,N-Dimethylamino)phenyl]-17β-(N-formamido)-17α-(1-propynyl)estra-4,9-dien-3-one] was tested, and the Uterine weight ([4]; compound orally at 10 mg/day concurrently with 5 μg of estradiol per day) was 716 ± 96.6 mg, the “McPhail Index, McGinty Assay (Agonist)” value ([1]; dose 0.3 micrograms) was 0 ± 0 and the “McPhail Index, McGinty Assay (Agonist)” value ([1]; dose 3 micrograms) was 0 ± 0. The “McPhail Index, McGinty Assay (Agonist)” value ([1]; dose 30 micrograms) was 0 ± 0, the “McPhail Index … (Antagonist)” value ([2]; dose 0.3 micrograms) was 0 ± 0 and the “McPhail Index … (Antagonist)” value ([2]; dose 3 micrograms) was 0 ± 0. For the same compound, the “McPhail Index … (Antagonist)” value ([2]; dose 30 micrograms) was 0 ± 0, the “Blocking the action of progesterone in the anti-McGinty assay” value [2] was “completely effective in blocking the action of progesterone” and the IC50 [3] was 0.7 nM.
With `CC#CC1(N(C)O)CCC2C3CCC4=CC(=O)CCC4=C3C(c3ccc(N(C)C)cc3)CC21C` (stereo not drawn) [11β-[4-(N,N-Dimethylamino)phenyl]-17β-(N-hydroxy-N-methylamino)-17α-(1-propynyl)estra-4,9-dien-3-one] the “McPhail Index, McGinty Assay (Agonist)” value ([1]; dose 0.3 micrograms) was 0 ± 0, the “McPhail Index, McGinty Assay (Agonist)” value ([1]; dose 3 micrograms) was 0 ± 0 and the “McPhail Index, McGinty Assay (Agonist)” value ([1]; dose 30 micrograms) was 0 ± 0. The “McPhail Index … (Antagonist)” value ([2]; dose 0.3 micrograms) was 2.0 ± 0.2, the “McPhail Index … (Antagonist)” value ([2]; dose 3 micrograms) was 0 ± 0 and the “McPhail Index … (Antagonist)” value ([2]; dose 30 micrograms) was 0 ± 0. The IC50 [3] was 7.1 nM.
`CN(C)c1ccc(C2CC3(C)C(CCC34CCCN4O)C3CCC4=CC(=O)CCC4=C23)cc1` (stereo not drawn) [11β-[4-(N,N-Dimethylamino)phenyl]-1′-hydroxy-spiro[estra4,9-dien-17β,2′-pyrrolidine]-3-one] was tested, and the “McPhail Index, McGinty Assay (Agonist)” value ([1]; dose 0.3 micrograms) was 0 ± 0, the “McPhail Index, McGinty Assay (Agonist)” value ([1]; dose 3 micrograms) was 0 ± 0 and the “McPhail Index, McGinty Assay (Agonist)” value ([1]; dose 30 micrograms) was 0 ± 0. For the same compound, the “McPhail Index … (Antagonist)” value ([2]; dose 0.3 micrograms) was 2.7 ± 0.0, the “McPhail Index … (Antagonist)” value ([2]; dose 3 micrograms) was 2.3 ± 0.5 and the “McPhail Index … (Antagonist)” value ([2]; dose 30 micrograms) was 0.07 ± 0.07. It also gave an IC50 [3] of 3.5 nM.
For `CC1CCC2(CCC3C4CCC5=CC(=O)CCC5=C4C(c4ccc(N(C)C)cc4)CC32C)N1O` (stereo not drawn) [11β-[4-(N,N-Dimethylamino)phenyl]-1′-hydroxy-5′-methyl-spiro[estra-4,9-dien-17β,2′-pyrrolidine]-3-one], the “McPhail Index, McGinty Assay (Agonist)” value ([1]; dose 0.3 micrograms) was 0 ± 0, the “McPhail Index, McGinty Assay (Agonist)” value ([1]; dose 3 micrograms) was 0 ± 0 and the “McPhail Index, McGinty Assay (Agonist)” value ([1]; dose 30 micrograms) was 0 ± 0. The “McPhail Index … (Antagonist)” value ([2]; dose 0.3 micrograms) was 2.1 ± 0.3, the “McPhail Index … (Antagonist)” value ([2]; dose 3 micrograms) was 2.4 ± 0.4 and the “McPhail Index … (Antagonist)” value ([2]; dose 30 micrograms) was 0.7 ± 0.4. The IC50 [3] was 5.2 nM.
With `CC#C[C@]1(N)CC[C@H]2[C@@H]3CCC4=CC(=O)CCC4=C3[C@@H](c3ccc(N(C)C)cc3)C[C@@]21C` [17β-Amino-11β-[4-(N,N-dimethylamino)phenyl]-17α-(1-propynyl)estra-4,9-dien-3-one] the “McPhail Index, McGinty Assay (Agonist)” value ([1]; dose 0.3 micrograms) was 0 ± 0, the “McPhail Index, McGinty Assay (Agonist)” value ([1]; dose 3 micrograms) was 0 ± 0 and the “McPhail Index, McGinty Assay (Agonist)” value ([1]; dose 30 micrograms) was 0 ± 0. For the same compound, the “McPhail Index … (Antagonist)” value ([2]; dose 0.3 micrograms) was 1.6 ± 0.3, the “McPhail Index … (Antagonist)” value ([2]; dose 3 micrograms) was 0.2 ± 0.1 and the “McPhail Index … (Antagonist)” value ([2]; dose 30 micrograms) was 0 ± 0. The IC50 [3] was 8.3 nM.
`C[C@]12CC[C@@H]3c4ccc(O)cc4CC[C@H]3[C@@H]1CC[C@@H]2O` [estradiol, reference compound] showed a Uterine weight ([4]; estradiol alone, 5 μg per day) of 1337 ± 105 mg.
